The values below come from patent publication US8048884B2, “Substituted piperazinyl pyrazines and pyridines as 5-HT7 receptor antagonists” (Eli Lilly and Company, priority 2007, dated 2011).

One experiment has as its target T1, 5-HT1B (Homo sapiens, UniProt P28222).
T1 construct: expressed in transfected cells
The experiment in a line: Radioligand binding assay, 5-HT1B subtype. As for the experimental part:
[^3H] […] The reactions are incubated at room temperature for 3 hr. and then counted in a Trilux Microbeta™ scintillation counter to detect receptor-bound radioligand. Binding data is analyzed by computer-assisted 4 parameter fit analysis (ID Business Solutions Ltd, Guildford, Surrey, UK). […]
Affinity for other serotonin receptor subtypes as well as for alpha 1 & 2 adrenergic receptors can readily be determined by modification of the above described radioligand receptor binding assay using membranes derived from cells stably expressing the desired receptor subtype including the 5-HT1A, 5-HT1B, and 5-HT1D subtypes, as well as the 5-HT2A, 5-HT2B, 5-HT2C, 5-HT4, 5-HT5, and 5-HT6 receptor subtypes. […]

In the next experiment the target is T2, 5-HT7 receptor (Homo sapiens, UniProt P34969).
T2 construct: expressed in transfected cells
The experiment in a line: Functional antagonist assay: measurement of cAMP formation. In kind it is cell-based. The settings on record: 5-HT7-expressing AV-12 cells. How it is done:
For cAMP functional assays, the 5-HT7-expressing cells from above are grown in 150 cm^2 flasks and processed essentially as follows. The media is aspirated from the flasks and cells are washed with 1 mL PBS. The cells are released from monolayer with enzyme free cell dissociation solution (Specialtymedia CAT#S-004-B, www.Chemicon.com) and resuspended in complete media. A sample of the cells is counted and the remainder is centrifuged as above for 3 min. The resulting cell pellet is resuspended in PBS at a concentration of 1×10^6 cells per mL and used directly in the cAMP assay as described.
The 5-HT7 receptor is functionally coupled to a G-protein as measured by the ability of serotonin and serotonergic drugs to stimulate cAMP production in CHO cells transfected with the 5-HT7 receptor. (Ruat, et al., Proceedings of the National Academy of Sciences (USA), 90:8547-8551, 1993.) Accordingly, functional receptor activity can be measured by measuring adenylate cyclase activity using a commercially available cell-based, homogeneous, time resolved fluorescence assay kit, as for example the kit produced by Cisbio-US, Inc. (Bedford, Mass.). Essentially, and using the protocol and reagents provided by the manufacturer, approximately 20,000 human 5-HT7 receptor-expressing AV-12 cells (as described above) are used with test compound dose concentrations in the range described for the binding assay. […] A cAMP standard curve is also run in every experiment. After the assay plates are read in an Envision™ instrument (Perkin-Elmer, Wellesley Mass.), the data are normalized to the standard curve and converted to percent inhibition for data analysis as described above for the receptor binding assay results. The Kb (nM) is calculated as a measure of the antagonist potency of the compound. Preferred compounds are those having percent inhibition>75%. Still other preferred compounds are those having Kb<50 nM.
(In general: cAMP levels reflect the balance of adenylyl cyclase and phosphodiesterase activity.)

The subject of experiment [1] is male Harlan Sprague-Dawley rats. The experiment is described as follows: Animal model of dural plasma protein extravasation (PPE). It is filed as in vivo, rat. The text has this:
The dural plasma protein extravasation model is an established model for migraine. The ability of a test compound to reduce extravasation of plasma proteins into the dura under assay conditions is considered indicative of the compound's ability to reduce or prevent the dural inflammation thought to be symptomatic of migraine. (see Johnson, K. W., et al., Neuroreport, 8 (1997) 2237-2240.)
To assay compounds for their ability to reduce or prevent dural plasma protein extravasation, male Harlan Sprague-Dawley rats (250-350 g) are anesthetized with sodium pentobarbital (65 mg/kg, i.p.) and placed in a stereotaxic frame (David Kopf Instruments) with the incisor bar set at −2.5 mm. Following a midline sagittal scalp incision, 2 pairs of bilateral holes are drilled through the skull (3.2 mm posterially, 1.8 and 3.8 mm laterally, all coordinates referenced to bregma). […]
The amount of FITC-BSA for each sample is quantified with a fluorescence microscope (Zeiss) equipped with a grating monochromator, a spectrophotometer, and a computer driven stage. Fluorescence measurements are taken at 25 points in a 5×5 grid in 500 μm steps on each dural sample with an excitation wavelength of approximately 490 nm and emission intensity measured at approximately 535 nm. The mean and standard deviation of the 25 measurements are determined. […]

T2 sequence (P34969 whole entry): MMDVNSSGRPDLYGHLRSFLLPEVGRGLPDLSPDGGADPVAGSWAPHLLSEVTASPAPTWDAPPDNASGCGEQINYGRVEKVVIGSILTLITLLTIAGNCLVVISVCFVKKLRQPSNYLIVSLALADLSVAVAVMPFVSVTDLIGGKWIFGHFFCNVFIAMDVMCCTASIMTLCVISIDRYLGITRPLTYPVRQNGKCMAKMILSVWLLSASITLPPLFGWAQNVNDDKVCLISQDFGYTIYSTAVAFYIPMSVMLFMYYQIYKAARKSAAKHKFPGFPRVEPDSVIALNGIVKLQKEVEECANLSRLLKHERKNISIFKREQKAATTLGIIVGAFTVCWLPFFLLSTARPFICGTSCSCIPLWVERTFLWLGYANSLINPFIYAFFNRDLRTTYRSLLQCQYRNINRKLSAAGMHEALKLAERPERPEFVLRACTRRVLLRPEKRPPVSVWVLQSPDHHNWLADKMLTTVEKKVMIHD
T1 sequence (P28222 whole entry, species assumed): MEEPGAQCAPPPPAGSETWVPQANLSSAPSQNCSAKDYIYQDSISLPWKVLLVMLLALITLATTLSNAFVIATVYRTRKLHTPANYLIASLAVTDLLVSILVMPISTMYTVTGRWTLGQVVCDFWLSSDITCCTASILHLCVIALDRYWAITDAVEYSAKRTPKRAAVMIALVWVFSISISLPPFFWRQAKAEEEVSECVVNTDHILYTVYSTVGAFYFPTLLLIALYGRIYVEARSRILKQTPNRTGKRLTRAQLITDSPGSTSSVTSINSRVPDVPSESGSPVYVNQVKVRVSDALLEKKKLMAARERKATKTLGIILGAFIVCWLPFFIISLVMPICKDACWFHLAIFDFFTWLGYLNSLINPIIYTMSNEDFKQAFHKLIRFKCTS

What is called Ki is the dissociation constant of the complex between target and ligand, obtained from inhibition or displacement. Low readings indicate tighter binding, high ones weaker binding. For orientation: Kb means the affinity of an antagonist, worked out from how it opposes an agonist. A higher Kb goes with lower antagonist affinity. The compound `COCc1ccc(-c2nccnc2N2CCN(CCN(C)S(=O)(=O)c3cnn(C)c3)CC2)cc1.Cl` [Example 25, 1-Methyl-1H-pyrazole-4-sulfonic acid {2-[3′-(4-methoxymethyl-phenyl)-2,3,5,6-tetrahydro-[1,2′]bipyrazinyl-4-yl]-ethyl}-methyl-amide hydrochloride] had an inhibition constant (Ki) on 5-HT1B of 3240 nM. For the same compound, the antagonist character entry at 5-HT7 receptor is recorded as “full antagonists”. For the same compound, the Kb at 5-HT7 receptor (antagonist potency) was about 8.5 nM. Moreover, the “ratio of extravasation, stimulated side over unstimulated side” value in experiment [1] (at ID100 of 1 mg/Kg, saline controls about 2.0) is recorded as “about 1.1”. In addition, in experiment [1] (rat dural plasma protein extravasation, route not given), the ID100 was 1 mg/kg.
